Reference: patent publication US9855272B2, “1H-pyrazolo[3,4-B]pyridines and therapeutic uses thereof” (Samumed, LLC, priority 2009, dated 2018)
pIC50: −log10 of the molar value.

test system: Wnt; experiment: Wnt reporter assay: SP5 promoter-driven firefly luciferase in SW480 cells; format: cell-based; settings: Homo sapiens; SW480 colon cancer cells with SP5 promoter (TCF/LEF) luciferase reporter; 24-40 h after compound addition; normalized to DMSO; read-out: Wnt inhibition, IC50
Excerpt: Another screening assay for Wnt activity is described as follows. Reporter cell lines can be generated by stably transducing cells of cancer cell lines (e.g., colon cancer) with a lentiviral construct that include a wnt-responsive promoter driving expression of the firefly luciferase gene.
Lentiviral constructs can be made in which the SP5 promoter, a promoter having eight TCF/LEF binding sites derived from the SP5 promoter, is linked upstream of the firefly luciferase gene. The lentiviral constructs can also include a hygromycin resistance gene as a selectable marker. The SP5 promoter construct can be used to transduce SW480 cells, a colon cancer cell line having a mutated APC gene that generates a truncated APC protein, leading to de-regulated accumulation of β-catenin.
Cultured SW480 cells bearing a reporter construct can be distributed at approximately 10,000 cells per well into 96 well or 384 well plates. Compounds from a small molecule compound library can then be added to the wells in half-log dilutions using a ten micromolar top concentration. A series of control wells for each cell type receive only buffer and compound solvent. Twenty-four to forty hours after the addition of compound, reporter activity for luciferase can be assayed, for example, by addition of the BrightGlo luminescence reagent (Promega) and the Victor3 plate reader (Perkin Elmer). Readings can be normalized to DMSO only treated cells, and normalized activities can then be used in the IC50 calculations.

`CC(C)CC(=O)Nc1cncc(-c2cnc3[nH]nc(-c4nc5c(N6CCN(C)CC6)cncc5[nH]4)c3c2)c1` [Compound 57, 3-methyl-N-(5-(3-(7-(4-methylpiperazin-1-yl)-3H-imidazo[4,5-c]pyridin-2-yl)-1H-pyrazolo[3,4-b]pyridin-5-yl)pyridin-3-yl)butanamide] and `CC(C)C(=O)Nc1cncc(-c2cnc3[nH]nc(-c4nc5c(N6CCN(C)CC6)cncc5[nH]4)c3c2)c1` [Compound 59, N-(5-(3-(7-(4-methylpiperazin-1-yl)-3H-imidazo[4,5-c]pyridin-2-yl)-1H-pyrazolo[3,4-b]pyridin-5-yl)pyridin-3-yl)isobutyramide] cannot be ordered by pIC50: 5.40 to 6.00 for the first, 5.52 to 5.70 for the second.

First: Cc1ccncc1-c1cnc2[nH]nc(-c3nc4ccncc4[nH]3)c2c1 [Compound 29, 3-(3H-imidazo[4,5-c]pyridin-2-yl)-5-(4-methylpyridin-3-yl)-1H-pyrazolo[3,4-b]pyridine]
Second: c1cncc(-c2cnc3[nH]nc(-c4nc5ccncc5[nH]4)c3c2)c1 [Compound 46]
The pIC50 of the first is lower: 5.30 to 5.52 for the first, 5.70 to 6.00 for the second.

`O=C(Nc1cncc(-c2cnc3[nH]nc(-c4nc5c(-c6cccc(F)c6)cncc5[nH]4)c3c2)c1)N1CCOCC1` [Compound 62, N-(5-(3-(7-(3-fluorophenyl)-3H-imidazo[4,5-c]pyridin-2-yl)-1H-pyrazolo[3,4-b]pyridin-5-yl)pyridin-3-yl)morpholine-4-carboxamide] and `CCC(=O)Nc1cncc(-c2cnc3[nH]nc(-c4nc5c(-c6cccc(F)c6)cncc5[nH]4)c3c2)c1` [Compound 49, N-(5-(3-(7-(3-fluorophenyl)-3H-imidazo[4,5-c]pyridin-2-yl)-1H-pyrazolo[3,4-b]pyridin-5-yl)pyridin-3-yl)propionamide] cannot be ordered by pIC50: greater than 7.70 for the first, greater than 8.30 for the second.

`CN(C)C(=O)Nc1cncc(-c2cnc3[nH]nc(-c4nc5c(-c6cccc(F)c6)cncc5[nH]4)c3c2)c1` [Compound 66, 3-(5-(3-(7-(3-fluorophenyl)-3H-imidazo[4,5-c]pyridin-2-yl)-1H-pyrazolo[3,4-b]pyridin-5-yl)pyridin-3-yl)-1,1-dimethylurea] and `CCC(=O)Nc1cncc(-c2cnc3[nH]nc(-c4nc5c(-c6ccc(F)cc6)cncc5[nH]4)c3c2)c1` [Compound 50, N-(5-(3-(7-(4-fluorophenyl)-3H-imidazo[4,5-c]pyridin-2-yl)-1H-pyrazolo[3,4-b]pyridin-5-yl)pyridin-3-yl)propionamide] cannot be ordered by pIC50: greater than 7.82 for the first, greater than 8.82 for the second.

`CC(C)CC(=O)Nc1cncc(-c2cnc3[nH]nc(-c4nc5ccncc5[nH]4)c3c2)c1` [Compound 53, N-(5-(3-(3H-imidazo[4,5-c]pyridin-2-yl)-1H-pyrazolo[3,4-b]pyridin-5-yl)pyridin-3-yl)-3-methylbutanamide] and `CC(C)C(=O)Nc1cncc(-c2cnc3[nH]nc(-c4nc5ccncc5[nH]4)c3c2)c1` [Compound 52, N-(5-(3-(3H-imidazo[4,5-c]pyridin-2-yl)-1H-pyrazolo[3,4-b]pyridin-5-yl)pyridin-3-yl)isobutyramide] cannot be ordered by pIC50: less than 5.00 for the first, less than 5.00 for the second.

Compared with `CCC(=O)Nc1cncc(-c2cnc3[nH]nc(-c4nc5c(-c6ccccc6F)cncc5[nH]4)c3c2)c1` [Compound 51, N-(5-(3-(7-(2-fluorophenyl)-3H-imidazo[4,5-c]pyridin-2-yl)-1H-pyrazolo[3,4-b]pyridin-5-yl)pyridin-3-yl)propionamide], `CCC(=O)Nc1cncc(-c2cnc3[nH]nc(-c4nc5c(-c6cccnc6)cncc5[nH]4)c3c2)c1` [Compound 47, N-(5-(3-(7-(pyridin-3-yl)-3H-imidazo[4,5-c]pyridin-2-yl)-1H-pyrazolo[3,4-b]pyridin-5-yl)pyridin-3-yl)propionamide] is lower in pIC50: greater than 7.35 for the first, 5.00 to 5.15 for the second. The first is the more potent here.

First: c1cncc(-c2cnc3[nH]nc(-c4nc5c(-c6cccnc6)cncc5[nH]4)c3c2)c1 [Compound 45]
Second: CCC(=O)Nc1cncc(-c2cnc3[nH]nc(-c4nc5c(N6CCOCC6)cncc5[nH]4)c3c2)c1 [Compound 55, N-(5-(3-(7-morpholino-3H-imidazo[4,5-c]pyridin-2-yl)-1H-pyrazolo[3,4-b]pyridin-5-yl)pyridin-3-yl)propionamide]
The pIC50 of the first is higher: 5.92 to 6.70 for the first, less than 5.00 for the second.
